Test results: patent US20080182859A1 (Curis, Inc., priority 2006, published 2008)
Counter-ions that a name gives are not always drawn.

Experiments:
Type in all cases: cell-based
sonic hedgehog pathway [1] = assay: Hedgehog pathway Gli-luciferase reporter assay, S12 cells; details: S12 mouse embryonic mesenchymal cells
Source text: (§1) Mouse (TM3: mouse Leydig cells; S12: mouse embryonic mesenchymal cells) and human (Daoy: human medulloblastoma cell; HepM: human embryonic palatal mesenchymal cell) cell lines are used to screen small molecules for their ability to modulate the activity of the sonic hedgehog pathway (Table 1, Table 2, and Table 3). Stable hedgehog pathway reporter cell lines are established by specific antibiotic selection following transfection of a reporter plasmid containing a luciferase gene located directly downstream from the gli promoter. Consequently, any observable changes in cellular luciferase activity may be attributed to changes in sonic hedgehog pathway activity in mouse and human cells, respectively, since gli is the major by-product of this pathway. To calculate activity, we generate an eleven point dose curve for each compound using 1:3 dilutions in 96 well assay plates. Each plate tested also contains low and high control to establish maximal pathway activation so to establish/compare a percentage activation of each tested compound (AMAX) on respective plates. Also we calculate EC50 values, or a concentration where the pathway will be exactly 50% activated, for each tested compound to determine potency. In these cell lines, compounds that register >20% AMAX values are considered active.
(§2) Stable hedgehog pathway reporter cell lines are established following specific antibiotic selection following transfection of a reporter plasmid In short, typically cells are plated in MicroTiter-plates at 10,000-20,000 cells per well, in growth media (containing 10%-20% FBS). After 48-72 hrs (HGL and DGL respectively) the media in the assay plates is switched to low-serum containing media (0.5% FBS). At that time compounds are added (at 1-5 μM) to the assay plates, in the presence or absence of hedgehog protein (octyl-modified version; 1-5 ng/ml). After another 24 hrs of incubation, the media from the assay plates is discarded and replaced with luciferase assay-mix. Subsequently, plates are incubated at RT for ˜15-30 mins and then read in a luminometer. [note: addition of the Hedgehog protein, although not critical, will sensitize the assay allowing the identification of weak actives].

sonic hedgehog pathway [2] = assay: Human hedgehog reporter assay Daoy-GliLuc (DGL); details: Daoy human medulloblastoma cells, Gli-luciferase reporter
How it was run: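 Stable Gli-promoter luciferase reporter lines (human HepM, Daoy; mouse S12) plated at 10,000–20,000 cells/well, switched to 0.5% FBS after 48–72 h, then given compound (1–5 μM; 11-point 1:3 dose curves) with or without octyl-modified hedgehog protein (1–5 ng/ml) for 24 h. Luminescence read; AMAX vs plate controls and EC50 derived.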

sonic hedgehog pathway [3] = assay: Hedgehog pathway Gli-luciferase reporter assay, TM3 cells; details: TM3 mouse Leydig cells
How it was run: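 Luminescence read-out of gli-promoter luciferase in stably transfected cells; 11-point 1:3 dose curves, 24 h compound exposure in 0.5% FBS, ± octyl-modified Hh protein 1–5 ng/ml. AMAX as % of plate low/high controls; EC50 from curve; >20% AMAX counted active.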

sonic hedgehog pathway [4] = assay: Human hedgehog reporter assay HEPM-GliLuc (HGL); details: HepM human embryonic palatal mesenchymal cells, Gli-luciferase reporter
Source text: as §1, §2

[5] = read-out: Human Daoy (Gli-Luc) Avg. EC50

Q: Which EC50 (sonic hedgehog pathway [1]; read-out: S12 Avg. EC50) does the source give for `CCOc1cc(-c2ccc(OC)c(CN(C(=O)c3sc4c(F)ccc(F)c4c3Cl)[C@H]3CC[C@H](NC)CC3)c2)ccn1` [Compound 414] here?
A: 50 to 250 nM

Q: What about the EC50 (sonic hedgehog pathway [2]; read-out: Daoy Avg. EC50) of the same compound?
A: < 50 nM

Q: How did the EC50 (sonic hedgehog pathway [1]; read-out: S12 Avg. EC50) turn out when `CCOc1cc(-c2ccc(OC)c(CN(C(=O)c3sc4cccc(F)c4c3Cl)[C@H]3CC[C@H](NC)CC3)c2)ccn1` [Compound 415] was run?
A: 50 to 250 nM

Q: What about the EC50 (sonic hedgehog pathway [2]; read-out: Daoy Avg. EC50) of the same compound?
A: 50 to 250 nM

Q: With `CN[C@H]1CC[C@@H](N(Cc2cc(-c3ccncc3)ccc2C)C(=O)c2sc3c(F)ccc(F)c3c2Cl)CC1` [Compound 392, 3-Chloro-4,7-difluoro-benzo[b]thiophene-2-carboxylic acid (4-methylamino-cyclohexyl)-(2-methyl-5-pyridin-4-yl-benzyl)-amide bis(trifluoroacetate)] as the compound, how does the EC50 (sonic hedgehog pathway [1]; read-out: Mouse S12 Avg. EC50) read?
A: < 50 nM

Q: And the EC50 (sonic hedgehog pathway [2]; [5])?
A: < 50 nM

Q: With `C=Cc1ccc(-c2ccc(OC)c(CN(C(=O)c3sc4c(F)ccc(F)c4c3Cl)[C@H]3CC[C@@H](N)CC3)c2)cc1` [Compound 393, N-((1r,4r)-4-aminocyclohexyl)-3-chloro-4,7-difluoro-N-((4-methoxy-4′-vinylbiphenyl-3-yl)methyl)benzo[b]thiophene-2-carboxamide] as the compound, how does the EC50 (sonic hedgehog pathway [1]; read-out: Mouse S12 Avg. EC50) read?
A: 50 to 250 nM

Q: And the EC50 (sonic hedgehog pathway [2]; [5])?
A: 50 to 250 nM

Q: For `CN[C@H]1CC[C@H](N(Cc2cc(-c3cccc(S(C)(=O)=O)c3)ccc2OC)C(=O)c2sc3c(F)ccc(F)c3c2Cl)CC1` [Compound 412, 3-Chloro-4,7-difluoro-benzo[b]thiophene-2-carboxylic acid (3′-methanesulfonyl-4-methoxy-biphenyl-3-ylmethyl)-(4-methylamino-cyclohexyl)-amide hydrochloride], which EC50 (sonic hedgehog pathway [1]; read-out: S12 Avg. EC50) is on record?
A: < 50 nM

Q: And the EC50 (sonic hedgehog pathway [2]; read-out: Daoy Avg. EC50)?
A: < 50 nM

Q: For `CN[C@H]1CC[C@@H](N(Cc2cc(-c3ccc(CS(C)(=O)=O)cc3)ccc2OC)C(=O)c2sc3c(F)ccc(F)c3c2Cl)CC1` [Compound 369, 3-Chloro-4,7-difluoro-benzo[b]thiophene-2-carboxylic acid (4′-methanesulfonylmethyl-4-methoxy-biphenyl-3-ylmethyl)-(4-methylamino-cyclohexyl)-amide hydrochloride], which EC50 (sonic hedgehog pathway [1]; read-out: Mouse S12 Avg. EC50) is on record?
A: < 50 nM

Q: And the EC50 (sonic hedgehog pathway [2]; [5])?
A: < 50 nM

Q: Which EC50 (sonic hedgehog pathway [1]; read-out: S12 Avg. EC50) does the source give for `CN[C@H]1CC[C@H](N(Cc2cc(-c3ccccc3[S+](C)[O-])ccc2OC)C(=O)c2sc3c(F)ccc(F)c3c2Cl)CC1` (stereo partly drawn) [Compound 409, 3-Chloro-4,7-difluoro-benzo[b]thiophene-2-carboxylic acid (2′-methanesulfinyl-4-methoxy-biphenyl-3-ylmethyl)-(4-methylamino-cyclohexyl)-amide trifluoroacetate] here?
A: 250 to 1000 nM

Q: And the EC50 (sonic hedgehog pathway [2]; read-out: Daoy Avg. EC50)?
A: 1000 to 2500 nM

Q: For `CN[C@H]1CC[C@@H](N(Cc2cc(-c3cc[n+]([O-])cc3)ccc2OC)C(=O)c2sc3c(F)ccc(F)c3c2Cl)CC1` [Compound 374, 4-(3-((3-chloro-4,7-difluoro-N-((1s,4s)-4-(methylamino)cyclohexyl)benzo[b]thiophene-2-carboxamido)methyl)-4-methoxyphenyl)pyridine 1-oxide], which EC50 (sonic hedgehog pathway [1]; read-out: Mouse S12 Avg. EC50) is on record?
A: < 50 nM

Q: What about the EC50 (sonic hedgehog pathway [2]; [5]) of the same compound?
A: < 50 nM

Q: `CCS(=O)(=O)c1ccc(-c2ccc(OC)c(CN(C(=O)c3sc4c(F)ccc(F)c4c3Cl)[C@H]3CC[C@@H](NC)CC3)c2)cc1` [Compound 389, 3-Chloro-4,7-difluoro-benzo[b]thiophene-2-carboxylic acid (4′-ethanesulfonyl-4-methoxy-biphenyl-3-ylmethyl)-(4-methylamino-cyclohexyl)-amide hydrochloride] was tested. Which EC50 (sonic hedgehog pathway [1]; read-out: Mouse S12 Avg. EC50) did it give?
A: < 50 nM

Q: And the EC50 (sonic hedgehog pathway [2]; [5])?
A: < 50 nM

Q: What does the source list for `CN[C@H]1CC[C@@H](N(Cc2cc(-c3ccc(N(C)C=O)cc3)ccc2OC)C(=O)c2sc3cccc(F)c3c2Cl)CC1` [Compound 347, 3-Chloro-4-fluoro-benzo[b]thiophene-2-carboxylic acid [4′-(formyl-methyl-amino)-4-methoxy-biphenyl-3-ylmethyl]-(4-methylamino-cyclohexyl)-amide trifluoroacetate]?
A: EC50 (sonic hedgehog pathway [3]): < 50 nM; EC50 (sonic hedgehog pathway [2]; read-out: Daoy Avg. EC50): < 50 nM; EC50 (sonic hedgehog pathway [4]): < 50 nM

Q: `CCOc1ccc(-c2ccc(C(=O)C(F)(F)F)cc2)cc1CN(C(=O)c1sc2ccccc2c1Cl)[C@H]1CC[C@@H](NC)CC1` [Compound 310, 3-Chloro-benzo[b]thiophene-2-carboxylic acid [4-ethoxy-4′-(2,2,2-trifluoro-acetyl)-biphenyl-3-ylmethyl]-(4-methylamino-cyclohexyl)-amide hydrochloride] was tested. Which EC50 (sonic hedgehog pathway [3]) did it give?
A: < 50 nM

Q: And the EC50 (sonic hedgehog pathway [2]; read-out: Daoy Avg. EC50)?
A: < 50 nM

Q: What about the EC50 (sonic hedgehog pathway [4]) of the same compound?
A: < 50 nM

Q: What does the source list for `CNC(=O)c1cc(-c2ccc(OC)c(CN(C(=O)c3sc4c(F)ccc(F)c4c3Cl)[C@H]3CC[C@H](NC)CC3)c2)ccn1` [356 (R21), 4-(3-{[(3-Chloro-4,7-difluoro-benzo[b]thiophene-2-carbonyl)-(4-methylamino-cyclohexyl)-amino]-methyl}-4-methoxy-phenyl)-pyridine-2-carboxylic acid methylamide dihydrochloride]?
A: EC50 (sonic hedgehog pathway [3]): < 50 nM; EC50 (sonic hedgehog pathway [2]; read-out: Daoy Avg. EC50): < 50 nM; EC50 (sonic hedgehog pathway [4]): < 50 nM

Q: `CN[C@H]1CC[C@@H](N(Cc2cc(-c3ccc(N)nc3)ccc2OC)C(=O)c2sc3c(F)ccc(F)c3c2Cl)CC1` [352 (R18)] was tested. Which EC50 (sonic hedgehog pathway [3]) did it give?
A: < 50 nM

Q: And the EC50 (sonic hedgehog pathway [2]; read-out: Daoy Avg. EC50)?
A: < 50 nM

Q: What about the EC50 (sonic hedgehog pathway [4]) of the same compound?
A: < 50 nM

Q: For `CNC1CCC(N(Cc2cc(-c3ccc(N)nc3C)ccc2OC)C(=O)c2sc3ccccc3c2Cl)CC1` (stereo not drawn) [Compound 398, 3-Chloro-benzo[b]thiophene-2-carboxylic acid [5-(6-amino-2-methyl-pyridin-3-yl)-2-methoxy-benzyl]-(4-methylamino-cyclohexyl)-amide dihydrochloride], which EC50 (sonic hedgehog pathway [3]) is on record?
A: 1000 to 2500 nM

Q: What about the EC50 (sonic hedgehog pathway [2]; read-out: Daoy Avg. EC50) of the same compound?
A: 250 to 1000 nM

Q: What about the EC50 (sonic hedgehog pathway [4]) of the same compound?
A: 1000 to 2500 nM

Q: `CCOc1ccc(-c2cccc(C#N)c2)cc1CN(C(=O)c1sc2ccccc2c1Cl)[C@H]1CC[C@@H](NC)CC1` [Compound 328, 3-Chloro-benzo[b]thiophene-2-carboxylic acid (3′-cyano-4-ethoxy-biphenyl-3-ylmethyl)-(4-methylamino-cyclohexyl)-amide hydrochloride] was tested. Which EC50 (sonic hedgehog pathway [3]) did it give?
A: < 50 nM

Q: And the EC50 (sonic hedgehog pathway [2]; read-out: Daoy Avg. EC50)?
A: < 50 nM

Q: What about the EC50 (sonic hedgehog pathway [4]) of the same compound?
A: 50 to 250 nM

Q: For `CN[C@H]1CC[C@@H](N(Cc2cc(-c3ccc(C#N)cc3)ccc2OC)C(=O)c2sc3ccccc3c2Cl)CC1` [Compound 301, 3-Chloro-benzo[b]thiophene-2-carboxylic acid (4′-cyano-4-methoxy-biphenyl-3-ylmethyl)-(4-methylamino-cyclohexyl)-amide hydrochloride], which EC50 (sonic hedgehog pathway [3]) is on record?
A: < 50 nM

Q: And the EC50 (sonic hedgehog pathway [2]; read-out: Daoy Avg. EC50)?
A: < 50 nM

Q: And the EC50 (sonic hedgehog pathway [4])?
A: 50 to 250 nM

Q: For `CN[C@H]1CC[C@@H](N(Cc2cc(-c3cc(C)nc(C)c3)ccc2OC)C(=O)c2sc3c(F)ccc(F)c3c2Cl)CC1` [Compound 350, 3-Chloro-4,7-difluoro-benzo[b]thiophene-2-carboxylic acid [5-(2,6-dimethyl-pyridin-4-yl)-2-methoxy-benzyl]-(4-methylamino-cyclohexyl)-amide dihydrochloride], which EC50 (sonic hedgehog pathway [3]) is on record?
A: < 50 nM

Q: What about the EC50 (sonic hedgehog pathway [2]; read-out: Daoy Avg. EC50) of the same compound?
A: < 50 nM

Q: What about the EC50 (sonic hedgehog pathway [4]) of the same compound?
A: 50 to 250 nM

Q: With `CN[C@H]1CC[C@@H](N(Cc2cc(-c3ccc(N(C)C=O)cc3)ccc2OC)C(=O)c2sc3ccccc3c2Cl)CC1` [Compound 315, 3-Chloro-benzo[b]thiophene-2-carboxylic acid [4′-(formyl-methyl-amino)-4-methoxy-biphenyl-3-ylmethyl]-(4-methylamino-cyclohexyl)-amide trifluoroacetate] as the compound, how does the EC50 (sonic hedgehog pathway [3]) read?
A: < 50 nM

Q: What about the EC50 (sonic hedgehog pathway [2]; read-out: Daoy Avg. EC50) of the same compound?
A: 50 to 250 nM

Q: And the EC50 (sonic hedgehog pathway [4])?
A: 250 to 1000 nM

Q: Which EC50 (sonic hedgehog pathway [3]) does the source give for `CN[C@H]1CC[C@@H](N(Cc2cc(-c3ccc(CCl)cc3)ccc2OC)C(=O)c2sc3ccccc3c2Cl)CC1` [Compound 340, 3-Chloro-benzo[b]thiophene-2-carboxylic acid (4′-chloromethyl-4-methoxy-biphenyl-3-ylmethyl)-(4-methylamino-cyclohexyl)-amide hydrochloride] here?
A: < 50 nM

Q: What about the EC50 (sonic hedgehog pathway [2]; read-out: Daoy Avg. EC50) of the same compound?
A: < 50 nM

Q: What about the EC50 (sonic hedgehog pathway [4]) of the same compound?
A: < 50 nM

Q: With `CN[C@H]1CC[C@@H](N(Cc2cc(-c3cnccn3)ccc2OC)C(=O)c2sc3ccccc3c2Cl)CC1` [330 (R22)] as the compound, how does the EC50 (sonic hedgehog pathway [3]) read?
A: 50 to 250 nM

Q: What about the EC50 (sonic hedgehog pathway [2]; read-out: Daoy Avg. EC50) of the same compound?
A: < 50 nM

Q: And the EC50 (sonic hedgehog pathway [4])?
A: 50 to 250 nM

Q: With `CCOc1ccc(-c2ccc(C(C)=O)cc2)cc1CN(C(=O)c1sc2ccccc2c1Cl)[C@H]1CC[C@@H](NC)CC1` [Compound 311, 3-Chloro-benzo[b]thiophene-2-carboxylic acid (4′-acetyl-4-ethoxy-biphenyl-3-ylmethyl)-(4-methylamino-cyclohexyl)-amide hydrochloride] as the compound, how does the EC50 (sonic hedgehog pathway [3]) read?
A: < 50 nM

Q: What about the EC50 (sonic hedgehog pathway [2]; read-out: Daoy Avg. EC50) of the same compound?
A: < 50 nM

Q: And the EC50 (sonic hedgehog pathway [4])?
A: 50 to 250 nM
